What was measured:
Cholinesterase = Cholinesterase (Equus caballus, UniProt P81908)
Description: Inhibition of equine serum BChE using acetylthiocholine chloride as substrate after 15 mins by Ellman's method

Acetylcholinesterase = Acetylcholinesterase (Electrophorus electricus, UniProt O42275)
Description: Inhibition of Electrophorus electricus AChE using acetylthiocholine chloride as substrate after 15 mins by Ellman's method

in vitro = settings: PAMPA
Description: Permeability of the compound by PAMPA

SMILES	IC50 (Cholinesterase)	IC50 (Acetylcholinesterase)	Papp (in vitro)
O=C(CNCCNc1c2c(nc3ccccc13)CCC2)Nc1ccc2c(c1)C(=O)c1cccc3ccnc-2c13	243 nM	513 nM	4.6 ×10⁻⁶ cm/s
O=C(CCNCCNc1c2c(nc3ccccc13)CCC2)Nc1ccc2c(c1)C(=O)c1cccc3ccnc-2c13	1760 nM	422 nM	1.9 ×10⁻⁶ cm/s
O=C(CCNCCCNc1c2c(nc3ccccc13)CCC2)Nc1ccc2c(c1)C(=O)c1cccc3ccnc-2c13	399 nM	411 nM	4.9 ×10⁻⁶ cm/s
O=C(CCNCCCCNc1c2c(nc3ccccc13)CCC2)Nc1ccc2c(c1)C(=O)c1cccc3ccnc-2c13	199 nM	910 nM	2.4 ×10⁻⁶ cm/s
O=C(CNCCNc1c2c(nc3ccccc13)CCCC2)Nc1ccc2c(c1)C(=O)c1cccc3ccnc-2c13	433 nM	41 nM	4.8 ×10⁻⁶ cm/s
O=C(CCNCCNc1c2c(nc3ccccc13)CCCC2)Nc1ccc2c(c1)C(=O)c1cccc3ccnc-2c13	110 nM	3.4 nM	2.6 ×10⁻⁶ cm/s
O=C(CCNCCCNc1c2c(nc3ccccc13)CCCC2)Nc1ccc2c(c1)C(=O)c1cccc3ccnc-2c13	199 nM	57.1 nM	3.3 ×10⁻⁶ cm/s
O=C(CCNCCCCNc1c2c(nc3ccccc13)CCCC2)Nc1ccc2c(c1)C(=O)c1cccc3ccnc-2c13	288 nM	182 nM	2.1 ×10⁻⁶ cm/s
O=C(CNCCNc1c2c(nc3ccccc13)CCCCC2)Nc1ccc2c(c1)C(=O)c1cccc3ccnc-2c13	211 nM	61 nM	4 ×10⁻⁶ cm/s
O=C(CCNCCNc1c2c(nc3ccccc13)CCCCC2)Nc1ccc2c(c1)C(=O)c1cccc3ccnc-2c13	65 nM	51.7 nM	7.9 ×10⁻⁶ cm/s
O=C(CCNCCCNc1c2c(nc3ccccc13)CCCCC2)Nc1ccc2c(c1)C(=O)c1cccc3ccnc-2c13	21.1 nM	260 nM	8.9 ×10⁻⁶ cm/s
O=C(CCNCCCCNc1c2c(nc3ccccc13)CCCCC2)Nc1ccc2c(c1)C(=O)c1cccc3ccnc-2c13	150 nM	745 nM	1.1 ×10⁻⁶ cm/s
Nc1ccc2c(c1)C(=O)c1cccc3ccnc-2c13	> 100000 nM	> 100000 nM	

Source: ChEMBL document CHEMBL1828584, “Hybrids of oxoisoaporphine-tacrine congeners: novel acetylcholinesterase and acetylcholinesterase-induced β-amyloid aggregation inhibitors” (Eur J Med Chem, 2011)
